“Also recorded” adds a separate entry of the source.
Tested on: Hartley guinea pigs
Experiment: Preventive effect on siponimod-induced bradyarrhythmia in isoflurane-anesthetized guinea pig model
Format: in vivo
Description: A solvent or compound (I) (free form) was administered by oral gavage at a dose of 0.3. 1, or 3 mg/kg (volume: 5 mL/kg) to Hartley guinea pigs (7 to 10 weeks old, male, available from Japan SLC, Inc.). After completion of the administration, each animal was subjected to anesthetic induction by inhalation of isoflurane (available from Pfizer Japan Inc.), and the animal was held on an operating table having a heater function. The trachea was incised, and a tracheal cannula (KN-375, available from Natsume Seisakusho Co., Ltd.) was inserted. The tracheal cannula was connected to a ventilator (SN-480-7, available from Shinano Seisakusho Co., Ltd.), and artificial respiration was controlled by supplying 100% oxygen at a volume of 10 mL and a ventilation rate of 60 times/minute. The solvent used was 0.5 w/v % methyl cellulose 400 solution (available from FUJIFILM Wako Pure Chemical Corporation). Isoflurane (available from Pfizer Japan Inc.) anesthesia (about 1 to 4%, carrier gas: 100% oxygen) was used for maintenance of anesthesia. A catheter (BD intramedic polyethylene tubing PE50, available from Becton, Dickinson and Company) charged with 50 units/mL heparin (available from AY PHARMACEUTICALS CO., LTD.) was inserted into each of the carotid artery and the jugular vein and placed in the blood vessel. Systemic blood pressure was measured with a high-sensitivity DC amplifier (AD-611J, available from NIHON KOHDEN CORPORATION) via the catheter placed in the carotid artery. Electrodes were attached to the body surface, and a body surface electrocardiogram was measured with a high-sensitivity amplifier (AB-611J, available from NIHON KOHDEN CORPORATION). Blood pressure and electrocardiogram data were acquired and analyzed with PowerLab/Labchart system (available from ADInstruments). Analysis items are systolic blood pressure, diastolic blood pressure, average blood pressure, heart rate, P-wave width, PR interval, QRS width, QT interval, and corrected QT interval. Corrected QT interval was calculated using the Fridericia formula (QTc=QT interval/RR interval^1/3). After stabilization of each parameter, siponimod (synthesized according to WO 2017/120124) was continuously administered intravenously at 0.01 mg/kg for 10 minutes via the catheter placed in the jugular vein, followed by observation of the presence or absence of the onset of bradyarrhythmia for 60 minutes. The solvent used was a solution prepared by mixing of Polyethylene Glycol 400 (available from KANTO CHEMICAL CO., INC.) and dimethyl sulfoxide (available from FUJIFILM Wako Pure Chemical Corporation) at 9: 1 (volume ratio). Data were recorded and blood was collected 5, 10, 15, 20, 30, and 60 minutes after initiation of administration of siponimod. The observation was terminated 60 minutes after initiation of the administration, and the animal was euthanized by exsanguination or intravenous administration of a large amount of saturated potassium chloride solution under isoflurane anesthesia. Data were analyzed for atrial beating rate over time, ventricular beating rate over time, electrocardiographic parameters, the presence or absence of the onset of atrioventricular block, and plasma concentrations of compound (I) and siponimod. The plasma was collected by centrifuging the blood and cryopreserved at about −20° C. After thawing of the plasma, plasma drug concentrations were measured using LC/MS/MS after deproteinization with acetonitrile.
In FIG. 3, the measurements are shown as mean±standard error. Abbreviations, etc. are as follows. • (I): compound (I) • Atrioventricular block: the presence or absence of atrioventricular block • (x denotes second- or third-degree atrioventricular block) • PR & QRS: atrioventricular conduction time and ventricular activation time • QT & QTcF: ventricular repolarization time and heart rate-corrected ventricular repolarization time • Plasma concentration: the plasma concentration of siponimod or compound (I)

With `Cc1cc(CO)nc2cc3c(cc12)OC(C)(C)[C@H](O)[C@H]3NCCc1ccccc1` [Compound (I), (3R,4S)-7-Hydroxymethyl-2,2,9-trimethyl-4-(phenethylamino)-3,4-dihydro-2H-pyrano[2,3-g]quinoline-3-ol] the “cases in which siponimod-induced atrioventricular block was not observed” value (0.3 mg/kg oral gavage, four cases per group) was 50%, the “cases in which siponimod-induced atrioventricular block was not observed” value (1 mg/kg oral gavage, four cases per group) was 75% and the “cases in which siponimod-induced atrioventricular block was suppressed” value (3 mg/kg oral gavage, four cases per group) was 100%. The “siponimod-induced bradycardia (ventricular beating rate / heart rate)” value (3 mg/kg oral gavage, siponimod 0.01 mg/kg i.v.) was “completely restored; also recorded: completely prevented”, the “onset of siponimod-induced bradyarrhythmia (atrioventricular block)” value (0.3, 1, 3 mg/kg oral gavage, FIG. 3 and FIG. 4) was “prevented the onset of siponimod-induced bradyarrhythmia (atrioventricular block) in a dose-dependent manner” and the “siponimod-induced bradycardia (ventricular beating rate / heart rate)” value (compound (I) 0.3, 1, 3 mg/kg oral gavage before siponimod 0.01 mg/kg i.v. over 10 min, FIG. 3) was “improved in a dose-dependent manner; also recorded: prevented a reduction in heart rate”. For the same compound, the “siponimod-induced prolongation of QT time” value (compound (I) oral gavage 0.3-3 mg/kg) was “almost completely suppressed”.
